Assay results from patent US20080103205A1, “Pesticidal compositions and methods of use” (priority 2006, published 2008).

Key:
Type in all cases: in vivo
[1] = test system: Meloidogyne incognita eggs; experiment: M. incognita egg hatching
Protocol: Meloidogyne incognita (plant parasitic nematode) eggs were collected from tomato plant roots and were suspended in water. The solution was either diluted or concentrated to adjust the egg load to about 5000/ml. AT stock solutions prepared in DMSO and 300 ul of test solution was placed in a well, along with 20 ul of aqueous solution containing eggs. The number of eggs in 20 ul solution ranged from 115 to 143 (n=10). Each treatment (2, 5, 10, 20, or 40 ppm) was replicated 5 times. Microplates were sealed with Parafilm™ and incubated at room temperature. Similar tests conducted with 0.2% DMSO alone served as controls. Egg hatching was monitored at 24, 72, 120, and 168 hr after incubation. Both moving and non-moving nematodes were counted to arrive at the number of eggs hatched. Proportion of egg hatch was calculated as the number of juveniles divided by total number of eggs.
VSCC blockers effect on M. incognita egg hatching is shown in the following tables where % hatched is rounded to the nearest percentage point and where “% C*” is % hatch, normalized to control.

Drosophila melanogaster = experiment: Toxicity against adult Drosophila melanogaster, sugar solution feeding
Protocol: Toxicity tests were conducted using mixed sex adults of D. melanogaster maintained on artificial diet in the department of entomology, Virginia Tech. Test concentrations of 6.25, 12.5, 25, 50 or 100 ppm were prepared in 0.2% dimethyl sulfoxide (DMSO) for DIDS, 9-AC, NPPB, and IAA-94. The above final concentrations were obtained after mixing them in 10 ml of 10% sugar solution. Similar preparations with 0.2% DMSO alone served as controls. One end of a cotton wick was dipped in 0.5 ml of sugar solution and placed on the glass vial containing 10 adult flies of mixed sex. Each concentration of test chemical had 5 replications. Mortality counts of flies were taken 24, 48, and 72 hrs after treatment. Insects without movement upon probing were considered dead. LC50 values and confidence intervals for each chemical were estimated using POLO PLUS software program. The data provided in Tables 3-A and 3-B below confirm that AT blockers are toxic to insects in acute exposures.

[2] = test system: European corn borer (Ostrinia nubilalis); experiment: Diet surface test on European corn borer larvae (2nd instar)
Protocol: Concentrations of 6.25, 12.5, 25, or 50 ppm AT blocker were prepared in 95% ethyl alcohol (EtOH). 95% EtOH alone served as control. European corn borer (ECB) diet prepared from the powdered diet supplied by French Agricultural Research, Inc. Diet (1-2 ml) was poured into small cups and allowed to cool to room temperature. Test solution (100 ul) was placed onto the diet surface and allowed to evaporate the solvent. Each concentration of chemical had 2 sets of 10 cups each. One late 2nd instar larva was placed in each cup and covered with lid having perforations for aeration. Cups were placed in an incubator for 7 days at 25±1° C. and 70±5% RH. After seven days, the weight of each larva was taken and any mortality was recorded. Then, the surviving larvae were transferred to fresh diet cups holding sufficient diet (5-6 ml) without chemicals and incubated at 25±1° C. and 70±5% RH until pupation. Weights of larvae were taken 14 days after transferring to fresh diet (21 days after start of treatment). Finally, the number of days until pupation was recorded.
Anion transporters caused larval death and a reduction in weight gain within 7 days exposure. The effect persisted for 2 weeks time on untreated diet, but total time to pupation was relatively unaffected.

[3] = 6.25 ppm, 7 days after feeding, 10 larvae treated
[4] = 6.25 ppm, 21 days after feeding
[5] = 6.25 ppm, 21 days after feeding, 10 larvae treated
[6] = 12.5 ppm, 7 days after feeding, 10 larvae treated
[7] = 12.5 ppm, 21 days after feeding
[8] = 12.5 ppm, 21 days after feeding, 10 larvae treated
[9] = 25 ppm, 7 days after feeding, 10 larvae treated
[10] = 25 ppm, 21 days after feeding, 10 larvae treated
[11] = 50 ppm, 7 days after feeding, 10 larvae treated

Compound: CC1(C2CCCC2)Cc2cc(OCC(=O)O)c(Cl)c(Cl)c2C1=O (single isomer, unassigned; (+)) [IAA-94, (+)(2-cyclopentyl-6,7-dichloro-2-methyl-1-oxo-5-indanyloxy) acetic acid]
- Eggs Hatched % ([1]; 2 ppm, 24 hr): 10%
- Eggs Hatched % C* (% hatch, normalized to control) ([1]; 2 ppm, 24 hr): 100%
- Eggs Hatched No. ([1]; 2 ppm, 24 hr): 70
- Eggs Hatched % ([1]; 2 ppm, 72 hr): 15%
- Eggs Hatched % C* (% hatch, normalized to control) ([1]; 2 ppm, 72 hr): 94%
- Eggs Hatched No. ([1]; 2 ppm, 72 hr): 97
- Eggs Hatched % ([1]; 2 ppm, 120 hr): 19%
- Eggs Hatched % C* (% hatch, normalized to control) ([1]; 2 ppm, 120 hr): 86%
- Eggs Hatched No. ([1]; 2 ppm, 120 hr): 130
- Eggs Hatched % ([1]; 2 ppm, 168 hr): 24%
- Eggs Hatched % C* (% hatch, normalized to control) ([1]; 2 ppm, 168 hr): 86%
- Eggs Hatched No. ([1]; 2 ppm, 168 hr): 161
- Eggs Hatched % ([1]; 5 ppm, 24 hr): 10%
- Eggs Hatched % C* (% hatch, normalized to control) ([1]; 5 ppm, 24 hr): 100%
- Eggs Hatched No. ([1]; 5 ppm, 24 hr): 66
- Eggs Hatched % ([1]; 5 ppm, 72 hr): 13%
- Eggs Hatched % C* (% hatch, normalized to control) ([1]; 5 ppm, 72 hr): 81%
- Eggs Hatched No. ([1]; 5 ppm, 72 hr): 96
- Eggs Hatched % ([1]; 5 ppm, 120 hr): 19%
- Eggs Hatched % C* (% hatch, normalized to control) ([1]; 5 ppm, 120 hr): 86%
- Eggs Hatched No. ([1]; 5 ppm, 120 hr): 128
- Eggs Hatched % ([1]; 5 ppm, 168 hr): 22%
- Eggs Hatched % C* (% hatch, normalized to control) ([1]; 5 ppm, 168 hr): 79%
- Eggs Hatched No. ([1]; 5 ppm, 168 hr): 161
- Eggs Hatched % ([1]; 10 ppm, 24 hr): 9%
- Eggs Hatched % C* (% hatch, normalized to control) ([1]; 10 ppm, 24 hr): 90%
- Eggs Hatched No. ([1]; 10 ppm, 24 hr): 64
- Eggs Hatched % ([1]; 10 ppm, 72 hr): 13%
- Eggs Hatched % C* (% hatch, normalized to control) ([1]; 10 ppm, 72 hr): 81%
- Eggs Hatched No. ([1]; 10 ppm, 72 hr): 88
- Eggs Hatched % ([1]; 10 ppm, 120 hr): 18%
- Eggs Hatched % C* (% hatch, normalized to control) ([1]; 10 ppm, 120 hr): 82%
- Eggs Hatched No. ([1]; 10 ppm, 120 hr): 112
- Eggs Hatched % ([1]; 10 ppm, 168 hr): 20%
- Eggs Hatched % C* (% hatch, normalized to control) ([1]; 10 ppm, 168 hr): 71%
- Eggs Hatched No. ([1]; 10 ppm, 168 hr): 134
- Eggs Hatched % ([1]; 20 ppm, 24 hr): 8%
- Eggs Hatched % C* (% hatch, normalized to control) ([1]; 20 ppm, 24 hr): 80%
- Eggs Hatched No. ([1]; 20 ppm, 24 hr): 60
- Eggs Hatched % ([1]; 20 ppm, 72 hr): 12%
- Eggs Hatched % C* (% hatch, normalized to control) ([1]; 20 ppm, 72 hr): 75%
- Eggs Hatched No. ([1]; 20 ppm, 72 hr): 82
- Eggs Hatched % ([1]; 20 ppm, 120 hr): 15%
- Eggs Hatched % C* (% hatch, normalized to control) ([1]; 20 ppm, 120 hr): 68%
- Eggs Hatched No. ([1]; 20 ppm, 120 hr): 96
- Eggs Hatched % ([1]; 20 ppm, 168 hr): 17%
- Eggs Hatched % C* (% hatch, normalized to control) ([1]; 20 ppm, 168 hr): 61%
- Eggs Hatched No. ([1]; 20 ppm, 168 hr): 112
- Eggs Hatched % ([1]; 40 ppm, 24 hr): 8%
- Eggs Hatched % C* (% hatch, normalized to control) ([1]; 40 ppm, 24 hr): 80%
- Eggs Hatched No. ([1]; 40 ppm, 24 hr): 55
- Eggs Hatched % ([1]; 40 ppm, 72 hr): 11%
- Eggs Hatched % C* (% hatch, normalized to control) ([1]; 40 ppm, 72 hr): 69%
- Eggs Hatched No. ([1]; 40 ppm, 72 hr): 69
- Eggs Hatched % ([1]; 40 ppm, 120 hr): 13%
- Eggs Hatched % C* (% hatch, normalized to control) ([1]; 40 ppm, 120 hr): 59%
- Eggs Hatched No. ([1]; 40 ppm, 120 hr): 82
- Eggs Hatched % ([1]; 40 ppm, 168 hr): 14%
- Eggs Hatched % C* (% hatch, normalized to control) ([1]; 40 ppm, 168 hr): 50%
- Eggs Hatched No. ([1]; 40 ppm, 168 hr): 92
- LC50 (ppm) (Drosophila melanogaster; 48 hr): 170.05 ppm
- LC50 (ppm) (Drosophila melanogaster; 72 hr): 115.67 ppm
- Mean wt of survived larvae ([2]; 6.25 ppm, 7 days after feeding): 45.52 mg
- Mean wt of survived larvae, mg ([2]; 6.25 ppm, 7 days after feeding): 44.64 (10) mg
- No. dead ([2]; 6.25 ppm, 7 days after feeding, 10 larvae): 0
- # surviving [2, 3]: 10
- No. dead [2, 3]: 0
- Mean wt of survived larvae [2, 4]: 138.56 mg
- Mean wt of survived larvae, mg [2, 4]: 150.90 (10) mg
- No. dead ([2]; 6.25 ppm, 21 days after feeding, 10 larvae): 0
- # surviving [2, 5]: 10
- No. dead [2, 5]: 0
- Mean wt of survived larvae ([2]; 12.5 ppm, 7 days after feeding): 33.62 mg
- Mean wt of survived larvae, mg ([2]; 12.5 ppm, 7 days after feeding): 34.40 (10) mg
- No. dead ([2]; 12.5 ppm, 7 days after feeding, 10 larvae): 0
- # surviving [2, 6]: 10
- No. dead [2, 6]: 0
- Mean wt of survived larvae [2, 7]: 108.84 mg
- Mean wt of survived larvae, mg [2, 7]: 115.14 (10) mg
- No. dead ([2]; 12.5 ppm, 21 days after feeding, 10 larvae): 0
- # surviving [2, 8]: 10
- No. dead [2, 8]: 0
- Mean wt of survived larvae ([2]; 25 ppm, 7 days after feeding): 25.97 mg
- Mean wt of survived larvae, mg ([2]; 25 ppm, 7 days after feeding): 23.96 (10) mg
- No. dead ([2]; 25 ppm, 7 days after feeding, 10 larvae): 0
- # surviving [2, 9]: 8
- No. dead [2, 9]: 2
- Mean wt of survived larvae ([2]; 25 ppm, 21 days after feeding): 4.85 mg
- Mean wt of survived larvae, mg ([2]; 25 ppm, 21 days after feeding): 65.60 (8) mg
- No. dead ([2]; 25 ppm, 21 days after feeding, 10 larvae): 2
- # surviving [2, 10]: 8
- No. dead [2, 10]: 2
- Mean wt of survived larvae ([2]; 50 ppm, 7 days after feeding): 11.90 mg
- Mean wt of survived larvae, mg ([2]; 50 ppm, 7 days after feeding): 12.93 (6) mg
- No. dead ([2]; 50 ppm, 7 days after feeding, 10 larvae): 4
- # surviving [2, 11]: 2
- No. dead [2, 11]: 8
- Mean wt of survived larvae ([2]; 50 ppm, 21 days after feeding): 0 mg
- Mean wt of survived larvae, mg ([2]; 50 ppm, 21 days after feeding): 24.0 (2) mg
- No. dead ([2]; 50 ppm, 21 days after feeding, 10 larvae): 8
- No. dead ([2]; 50 ppm, 21 days after feeding, 10 larvae treated): 10
- mortality at 6.25 ppm ([2]; Ostrinia nubilalis, 168 h, 6.25 ppm, 7 days after feeding): 0%
- mortality at 12.5 ppm ([2]; Ostrinia nubilalis, 168 h, 12.5 ppm, 7 days after feeding): 0%
- mortality at 6.25 ppm ([2]; Ostrinia nubilalis, 504 h, 6.25 ppm, 21 days after feeding): 0%
- mortality at 12.5 ppm ([2]; Ostrinia nubilalis, 504 h, 12.5 ppm, 21 days after feeding): 0%
- mortality at 25 ppm ([2]; Ostrinia nubilalis, 504 h, 25 ppm, 21 days after feeding): 20%
- mortality at 50 ppm ([2]; Ostrinia nubilalis, 504 h, 50 ppm, 21 days after feeding): 80%
